Data taken from patent publication US9193755B1, “TFEB variants and uses thereof” (Fondazione Telethon, priority 2011, dated 2015).

How the values were obtained:
long-lived proteins = test: Degradation of long-lived proteins; type: cell-based; conditions: autophagy inhibitor added
Protocol: Sub-confluent cells were incubated with L-U^14C-serine for 20 h and chased for 1 h with cold media to degrade short-lived proteins. Subsequently cells were incubated with either normal media or starvation media (eventually in the presence of 3-MA) for 4 h. The rate of long-lived protein degradation was calculated from the ratio of soluble radioactivity in the media to that insoluble in the acid-precipitable cell pellet.

mTORC1 = mTORC1 activity by level of p-P70S6K (immunoblotting); type: cell-based, human; conditions: HeLa cells treated overnight
Protocol: Cells were lysed with M-PER buffer (Thermo) containing protease and phosphatase inhibitors (Sigma); nuclear/cytosolic fractions were isolated as above described. […] Immunoblotting analysis was performed by transferring the protein onto a nitrocellulose membrane with an I-Blot (Invitrogen). The membrane was blocked with 5% non-fat milk in TBS-T buffer (TBS containing 0.05% Tween-20) and incubated with primary antibodies anti-FLAG and anti-TUBULIN (Sigma; 1:2000), anti-H3 (Cell Signaling; 1:10 000) at room temperature for 2 h whereas the following antibodies were incubated ON in 5% BSA: anti-TFEB (My Biosource; 1:1000), anti-P TFEB (1:1000) ERK1/2, p-ERK1/2, p-P70S6K, P70S6K (Cell Signaling; 1:1000). The membrane was washed three times with TBS-T buffer and incubated with alkaline phosphatase-conjugated IgG (Promega; 0.2 mg/ml) at room temperature for 1 h. The membrane was washed three times with TBS buffer and the expressed proteins were visualized by adding 10 ml Western Blue Stabilized Substrate (Promega).

TFEB = TFEB nuclear translocation in starved / re-stimulated HeLa cells (nuclear/cytosolic fractionation, immunofluorescence); type: cell-based, human; conditions: for nuclear translocation of exogenously expressed TFEB: HeLa and HEK-293T cells transfected with TFEB-3xFLAG, treated overnight; for TFEB nuclear translocation compared to starved media alone: EBSS media supplemented with the factor
Protocol: Cells were seeded at 50% of confluence in 6 well dishes and serum starved overnight (ON). Normal medium was added the following day either in presence of DMSO or kinase inhibitors. Subcellular fractionation was carried out as previously reported.

TFEB S142 = TFEB S142 phosphorylation with p-S142 phosphospecific antibody; type: cell-based, human; conditions: starved cells supplemented with normal media
Description: The mouse anti-TFEB monoclonal antibody was purchased from My Biosource catalogue No. MBS120432. To generate anti-pS142 specific antibodies, rabbits were immunized with the following peptide coupled to KLH: AGNSAPN{pSer}[…]. Following the fourth immunization, rabbits were sacrificed and the serum was collected. Non-phosphospecific antibodies were depleted from the serum by circulation through a column containing the non-phosphorylated antigene. The phosphospecific antibodies were subsequently purified using a column containing the phosphorylated peptide.
Cells were lysed with M-PER buffer (Thermo) containing protease and phosphatase inhibitors (Sigma); nuclear/cytosolic fractions were isolated as above described. Proteins were separated by SDS-PAGE (Invitrogen; reduced NuPAGE 4-12% Bis-tris Gel, MES SDS buffer). If needed, the gel was stained using 20 ml Imperial Protein Stain (Thermo Fisher) at room temperature for 1 h and de-stained with water. Immunoblotting analysis was performed by transferring the protein onto a nitrocellulose membrane with an I-Blot (Invitrogen). […]

primary hepatocytes = conditions: for upregulation / transcriptional response of TFEB target genes: hepatocytes from TFEB conditional knockout mice; for levels of P-ERK / mTOR as measured by the level of p-S6K: primary hepatocytes
Protocol: Liver was dissociated in a petri dish, cell pellet was washed in HBSS and plated at density of 5×10^5 cells/35 mm dish and cultured in William's medium E supplemented with 10% FBS, 2 mM glutamine, 0.1 mM Insulin, 0.1 mM Dexamethasone and pen/strep. The next day, cells were treated as described in the text.
Total RNA was extracted from tissues using TRIzol (Invitrogen) or from cells using RNAesy column (Qiagen). Reverse transcription was performed using TaqMan reverse transcription reagents (Applied Biosystems). Lysosomal and autophagic gene specific primers were previously reported^2. Autophagy gene primers and mouse primers were purchased from SABiosciences. Fold change calculations were calculated using SABiosciences' online data analysis website (http colon double forward slash www dot sabiosciences dot com forward slash per forward slash arrayanalysis dot php) which uses the DDCt method. […] Next, the DDCt value is calculated between the “control” group and the “experimental” group. Lastly, the fold change is calculated using 2^(−DDCt). Biological replicates were grouped to allow calculating the fold change values. Unpaired T-Test was used to calculate statistical significance. Asterisks in the graph indicate that the P-value was <0.05.

mTOR = mTOR (Homo sapiens, UniProt P42345); conditions: recent data (41, 47, 48); cited from earlier work
[1] = Dissolution of test peptides for in vitro kinase assay; type: physicochemical; conditions: 1 mM in 50 mM HEPES pH7
Protocol: TFEB-S-142: aa. o 117-166 of Seq Id No. 2: […] and TFEB-A-142: Seq Id No. 4, corresponding to aa. of 117-166 of Seq Id No. 2 where Ser 142 was substituted with Ala (bold): […] were synthesized by […] corp. The test peptides TFEB-A-142 and TFEB-S-142 were made up to 1 mM in 50 mM HEPES pH7. […] The kinase assay was performed at room temperature for 40 minutes at 200 μM ATP and 100 μM of each peptide, using Millipore's standard radiometric assay. All protein kinases were used at their standard KinaseProfiler™ assay concentration. Following incubation, all assays were stopped by the addition of acid and an aliquot spotted onto P30 and Filtermat A to separate products. All tests were carried out in triplicate, and the usual substrate for each protein kinase included as a control. In Vivo Gene Delivery

**Q.** Which “TFEB-induced enhancement of long-lived protein degradation” value (long-lived proteins) does the source give for Cn1cnc(N)c2ncnc1-2 [3-methyl adenine, reference compound] here?
**A.** The value was “abolished”.

**Q.** Which “mTORC1 activity as measured by level of p-P70S6K” value (mTORC1) does the source give for CC/C=C\C=C/C(=O)N/C=C/C[C@H]1C[C@@H](O)[C@@H](C)C/C=C/Cc2cccc(O)c2C(=O)O1 [Salicylihalamide A] here?
**A.** The value was “inhibited”.

**Q.** What about the “nuclear translocation of exogenously expressed TFEB” value (TFEB) of the same molecule?
**A.** Its value is “induced nuclear translocation”.

**Q.** With CCC(=O)N1CCN(c2ccc(-n3c(=O)ccc4cnc5ccc(-c6cnc7ccccc7c6)cc5c43)cc2C(F)(F)F)CC1 [Torin 1] as the molecule, how does the “nutrient-induced S142 phosphorylation” value (TFEB S142) read?
**A.** Its value is “clearly blunted”.

**Q.** And the “upregulation / transcriptional response of TFEB target genes” value (primary hepatocytes)?
**A.** The value was “significantly reduced”.

**Q.** What about the “levels of P-ERK” value (primary hepatocytes) of the same molecule?
**A.** The value was “unaffected”.

**Q.** And the “mTOR as measured by the level of p-S6K” value (primary hepatocytes)?
**A.** Its value is “inhibited mTOR”.

**Q.** And the TFEB subcellular localization (TFEB; starved cells stimulated with amino-acid rich medium, Torin 1 250 nM, Rapamycin 2.5 μM)?
**A.** Its TFEB subcellular localization is “massive TFEB nuclear accumulation”.

**Q.** Which mTOR inhibition (mTOR) does the source give for Nc1ccc(-c2ccc3ncc4ccc(=O)n(-c5cccc(C(F)(F)F)c5)c4c3c2)cn1 [Torin 2] here?
**A.** Its mTOR inhibition is “completely inhibiting mTOR activity”.

**Q.** With N#CC(=C(/N)Sc1ccccc1N)/C(C#N)=C(\N)Sc1ccccc1N [U0126] as the molecule, how does the “TFEB molecular weight shift induced by nutrients” value (TFEB) read?
**A.** The value was “only a partial TFEB molecular weight shift”.

**Q.** What about the TFEB nuclear localization (TFEB) of the same molecule?
**A.** The TFEB nuclear localization was “resulted in TFEB nuclear localization, at level similar to starvation”.

**Q.** With CCN(CC)CCCC(C)Nc1ccnc2cc(Cl)ccc12 (stereo not drawn) [chloroquine] as the molecule, how does the “upregulation / transcriptional response of TFEB target genes” value (primary hepatocytes) read?
**A.** The value was “significantly blunted”.

**Q.** What about the “expression of TFEB target genes” value (primary hepatocytes; hepatocytes from control mice) of the same molecule?
**A.** The value was “upregulated”.

**Q.** What about the “levels of P-ERK” value (primary hepatocytes) of the same molecule?
**A.** Its value is “unaffected”.

**Q.** What about the “mTOR as measured by the level of p-S6K” value (primary hepatocytes) of the same molecule?
**A.** The value was “inhibited mTOR”.

**Q.** What about the “nuclear translocation of exogenously expressed TFEB” value (TFEB) of the same molecule?
**A.** The value was “induced nuclear translocation”.

**Q.** With “EGF: growth factor supplemented to EBSS media (NSDSECPLSHDGYCLHDGVCMYIEALDKYACNCVVGYIGERCQYRDLKWWELR; UniProt P01133 971-1023, looked up)” as the molecule, how does the “TFEB nuclear translocation compared to starved media alone” value (TFEB) read?
**A.** The value was “significant inhibition”.

**Q.** With “LIF: cytokine supplemented to EBSS media” as the molecule, how does the “TFEB nuclear translocation compared to starved media alone” value (TFEB) read?
**A.** Its value is “Almost no effect”.

**Q.** Which dissolution [1] does the source give for “PPPAASPGVRAGHVLSSSAGNSAPNAPMAMLHIGSNPERELDDVIDNIMR [TFEB-A-142]” here?
**A.** The dissolution was “no issue with dissolution”.

**Q.** For “PPPAASPGVRAGHVLSSSAGNSAPNSPMAMLHIGSNPERELDDVIDNIMR (listed as Homo sapiens) [TFEB-S-142, peptide aa]”, which dissolution [1] is on record?
**A.** Its dissolution is “no issue with dissolution”.

**Q.** For “insulin: growth factor supplemented to EBSS media”, which “TFEB nuclear translocation compared to starved media alone” value (TFEB) is on record?
**A.** The value was “significant inhibition”.
